Laboratory results from ChEMBL document CHEMBL3991601, “The target landscape of clinical kinase drugs” (Science, 2017).
The source made the active and inactive calls.

Tests used:
[1] = target: NADH dehydrogenase [ubiquinone] 1 alpha subcomplex subunit 13 (Homo sapiens, UniProt Q9P0J0)
[2] = target: Eukaryotic translation initiation factor 2-alpha kinase 1 (Homo sapiens, UniProt Q9BQI3)
[3] = target: T1, Beta-adrenergic receptor kinase 1 (Homo sapiens, UniProt P25098)
T1 sequence (P25098 whole entry): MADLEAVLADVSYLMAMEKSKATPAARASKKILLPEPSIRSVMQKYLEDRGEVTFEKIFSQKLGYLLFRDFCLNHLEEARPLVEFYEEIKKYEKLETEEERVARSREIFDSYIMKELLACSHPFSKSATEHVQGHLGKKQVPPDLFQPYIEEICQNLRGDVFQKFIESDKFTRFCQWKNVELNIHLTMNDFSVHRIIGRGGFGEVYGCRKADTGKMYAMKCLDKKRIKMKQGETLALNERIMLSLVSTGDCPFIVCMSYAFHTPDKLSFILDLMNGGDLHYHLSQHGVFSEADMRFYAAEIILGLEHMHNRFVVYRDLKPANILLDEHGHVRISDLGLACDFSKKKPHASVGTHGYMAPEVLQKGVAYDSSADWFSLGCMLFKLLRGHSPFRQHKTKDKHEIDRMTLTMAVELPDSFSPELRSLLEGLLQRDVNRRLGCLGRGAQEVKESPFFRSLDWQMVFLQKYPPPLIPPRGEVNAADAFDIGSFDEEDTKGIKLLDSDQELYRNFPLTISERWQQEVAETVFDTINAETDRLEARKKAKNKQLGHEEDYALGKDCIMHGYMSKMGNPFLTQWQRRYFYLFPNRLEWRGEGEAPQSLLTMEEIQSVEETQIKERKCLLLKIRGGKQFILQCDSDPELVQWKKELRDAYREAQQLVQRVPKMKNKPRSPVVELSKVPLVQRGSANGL

Ephrin type-B receptor 3 = target: T2, Ephrin type-B receptor 3 (Homo sapiens, UniProt P54753)
T2 sequence (P54753 whole entry): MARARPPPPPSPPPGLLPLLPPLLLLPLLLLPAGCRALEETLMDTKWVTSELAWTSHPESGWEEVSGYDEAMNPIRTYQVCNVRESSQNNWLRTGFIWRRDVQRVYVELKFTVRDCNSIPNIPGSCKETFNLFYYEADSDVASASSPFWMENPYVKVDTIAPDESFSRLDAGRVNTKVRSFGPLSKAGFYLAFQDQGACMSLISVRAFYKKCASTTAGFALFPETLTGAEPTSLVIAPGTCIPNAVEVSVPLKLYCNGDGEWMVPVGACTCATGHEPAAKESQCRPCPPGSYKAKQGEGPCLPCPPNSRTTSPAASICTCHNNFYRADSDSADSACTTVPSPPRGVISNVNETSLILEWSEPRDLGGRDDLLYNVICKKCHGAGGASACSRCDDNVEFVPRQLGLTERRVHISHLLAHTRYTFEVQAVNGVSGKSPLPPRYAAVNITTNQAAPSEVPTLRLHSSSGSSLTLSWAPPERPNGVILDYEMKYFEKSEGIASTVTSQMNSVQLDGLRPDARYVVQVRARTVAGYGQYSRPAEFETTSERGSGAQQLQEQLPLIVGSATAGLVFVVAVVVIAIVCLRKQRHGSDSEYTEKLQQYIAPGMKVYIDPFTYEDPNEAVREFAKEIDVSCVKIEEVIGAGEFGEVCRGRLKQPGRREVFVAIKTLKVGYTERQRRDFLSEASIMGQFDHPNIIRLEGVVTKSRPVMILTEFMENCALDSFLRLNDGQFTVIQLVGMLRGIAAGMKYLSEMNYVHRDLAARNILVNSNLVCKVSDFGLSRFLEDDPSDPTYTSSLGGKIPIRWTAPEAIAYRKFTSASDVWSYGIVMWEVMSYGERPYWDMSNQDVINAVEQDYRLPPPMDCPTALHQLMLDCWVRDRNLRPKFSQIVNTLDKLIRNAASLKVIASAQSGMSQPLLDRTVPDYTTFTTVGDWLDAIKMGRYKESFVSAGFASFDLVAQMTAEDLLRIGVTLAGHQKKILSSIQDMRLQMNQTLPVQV

[4] = target: Ribosomal protein S6 kinase alpha-3 (Homo sapiens, UniProt P51812)
[5] = target: Atypical kinase COQ8A, mitochondrial (Homo sapiens, UniProt Q8NI60)
[6] = target: Serine/threonine-protein kinase MRCK alpha (Homo sapiens, UniProt Q5VT25)
[7] = target: Tyrosine-protein kinase HCK (Homo sapiens, UniProt P08631)
Activin receptor type-2B = Activin receptor type-2B (Homo sapiens, UniProt Q13705)
[8] = target: T3, Serine/threonine-protein kinase Nek9 (Homo sapiens, UniProt Q8TD19)
T3 sequence (Q8TD19 whole entry): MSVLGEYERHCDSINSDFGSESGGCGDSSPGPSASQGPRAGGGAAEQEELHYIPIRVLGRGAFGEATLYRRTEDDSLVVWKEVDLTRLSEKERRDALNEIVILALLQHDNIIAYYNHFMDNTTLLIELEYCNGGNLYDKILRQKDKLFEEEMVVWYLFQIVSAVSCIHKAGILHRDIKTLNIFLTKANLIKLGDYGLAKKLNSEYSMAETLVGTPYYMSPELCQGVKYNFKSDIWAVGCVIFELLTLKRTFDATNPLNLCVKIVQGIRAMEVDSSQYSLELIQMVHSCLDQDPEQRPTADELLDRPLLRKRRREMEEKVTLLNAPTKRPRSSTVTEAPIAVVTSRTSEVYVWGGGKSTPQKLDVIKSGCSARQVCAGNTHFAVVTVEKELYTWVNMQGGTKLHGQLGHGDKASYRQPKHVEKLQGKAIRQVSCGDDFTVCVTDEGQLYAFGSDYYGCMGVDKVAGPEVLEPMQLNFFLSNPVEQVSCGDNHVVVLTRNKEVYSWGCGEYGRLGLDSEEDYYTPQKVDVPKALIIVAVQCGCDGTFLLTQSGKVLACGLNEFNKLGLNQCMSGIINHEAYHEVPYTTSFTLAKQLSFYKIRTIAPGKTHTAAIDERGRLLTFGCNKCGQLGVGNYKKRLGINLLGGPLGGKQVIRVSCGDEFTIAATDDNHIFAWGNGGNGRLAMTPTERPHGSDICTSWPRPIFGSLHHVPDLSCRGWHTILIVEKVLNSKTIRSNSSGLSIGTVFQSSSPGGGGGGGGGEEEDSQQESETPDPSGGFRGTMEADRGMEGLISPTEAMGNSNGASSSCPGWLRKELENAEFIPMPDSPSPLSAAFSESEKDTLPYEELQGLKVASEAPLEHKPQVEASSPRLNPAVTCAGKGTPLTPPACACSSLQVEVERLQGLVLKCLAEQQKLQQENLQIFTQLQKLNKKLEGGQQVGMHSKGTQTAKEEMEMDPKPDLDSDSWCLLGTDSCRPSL
Further: in the data inactive means no Kd found up to 30 µM.

Atypical kinase COQ8A, mitochondrial, sequence (Q8NI60 whole entry): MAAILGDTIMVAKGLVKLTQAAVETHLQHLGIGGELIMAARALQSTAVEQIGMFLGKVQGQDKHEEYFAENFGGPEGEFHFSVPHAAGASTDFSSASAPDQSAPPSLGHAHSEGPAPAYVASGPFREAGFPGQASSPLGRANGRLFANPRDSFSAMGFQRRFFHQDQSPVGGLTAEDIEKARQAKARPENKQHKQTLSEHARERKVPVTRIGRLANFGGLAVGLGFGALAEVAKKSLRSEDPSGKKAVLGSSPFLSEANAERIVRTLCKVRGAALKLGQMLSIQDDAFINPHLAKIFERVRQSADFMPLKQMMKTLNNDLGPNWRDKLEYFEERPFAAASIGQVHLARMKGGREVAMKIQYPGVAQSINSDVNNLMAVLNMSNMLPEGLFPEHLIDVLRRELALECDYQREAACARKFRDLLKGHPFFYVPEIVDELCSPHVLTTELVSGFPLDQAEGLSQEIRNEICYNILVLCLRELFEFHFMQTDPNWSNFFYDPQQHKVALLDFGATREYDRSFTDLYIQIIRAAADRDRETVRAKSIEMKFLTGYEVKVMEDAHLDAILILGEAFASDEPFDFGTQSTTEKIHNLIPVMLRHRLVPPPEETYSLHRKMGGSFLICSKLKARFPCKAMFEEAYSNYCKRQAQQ
Serine/threonine-protein kinase MRCK alpha, sequence (Q5VT25 whole entry): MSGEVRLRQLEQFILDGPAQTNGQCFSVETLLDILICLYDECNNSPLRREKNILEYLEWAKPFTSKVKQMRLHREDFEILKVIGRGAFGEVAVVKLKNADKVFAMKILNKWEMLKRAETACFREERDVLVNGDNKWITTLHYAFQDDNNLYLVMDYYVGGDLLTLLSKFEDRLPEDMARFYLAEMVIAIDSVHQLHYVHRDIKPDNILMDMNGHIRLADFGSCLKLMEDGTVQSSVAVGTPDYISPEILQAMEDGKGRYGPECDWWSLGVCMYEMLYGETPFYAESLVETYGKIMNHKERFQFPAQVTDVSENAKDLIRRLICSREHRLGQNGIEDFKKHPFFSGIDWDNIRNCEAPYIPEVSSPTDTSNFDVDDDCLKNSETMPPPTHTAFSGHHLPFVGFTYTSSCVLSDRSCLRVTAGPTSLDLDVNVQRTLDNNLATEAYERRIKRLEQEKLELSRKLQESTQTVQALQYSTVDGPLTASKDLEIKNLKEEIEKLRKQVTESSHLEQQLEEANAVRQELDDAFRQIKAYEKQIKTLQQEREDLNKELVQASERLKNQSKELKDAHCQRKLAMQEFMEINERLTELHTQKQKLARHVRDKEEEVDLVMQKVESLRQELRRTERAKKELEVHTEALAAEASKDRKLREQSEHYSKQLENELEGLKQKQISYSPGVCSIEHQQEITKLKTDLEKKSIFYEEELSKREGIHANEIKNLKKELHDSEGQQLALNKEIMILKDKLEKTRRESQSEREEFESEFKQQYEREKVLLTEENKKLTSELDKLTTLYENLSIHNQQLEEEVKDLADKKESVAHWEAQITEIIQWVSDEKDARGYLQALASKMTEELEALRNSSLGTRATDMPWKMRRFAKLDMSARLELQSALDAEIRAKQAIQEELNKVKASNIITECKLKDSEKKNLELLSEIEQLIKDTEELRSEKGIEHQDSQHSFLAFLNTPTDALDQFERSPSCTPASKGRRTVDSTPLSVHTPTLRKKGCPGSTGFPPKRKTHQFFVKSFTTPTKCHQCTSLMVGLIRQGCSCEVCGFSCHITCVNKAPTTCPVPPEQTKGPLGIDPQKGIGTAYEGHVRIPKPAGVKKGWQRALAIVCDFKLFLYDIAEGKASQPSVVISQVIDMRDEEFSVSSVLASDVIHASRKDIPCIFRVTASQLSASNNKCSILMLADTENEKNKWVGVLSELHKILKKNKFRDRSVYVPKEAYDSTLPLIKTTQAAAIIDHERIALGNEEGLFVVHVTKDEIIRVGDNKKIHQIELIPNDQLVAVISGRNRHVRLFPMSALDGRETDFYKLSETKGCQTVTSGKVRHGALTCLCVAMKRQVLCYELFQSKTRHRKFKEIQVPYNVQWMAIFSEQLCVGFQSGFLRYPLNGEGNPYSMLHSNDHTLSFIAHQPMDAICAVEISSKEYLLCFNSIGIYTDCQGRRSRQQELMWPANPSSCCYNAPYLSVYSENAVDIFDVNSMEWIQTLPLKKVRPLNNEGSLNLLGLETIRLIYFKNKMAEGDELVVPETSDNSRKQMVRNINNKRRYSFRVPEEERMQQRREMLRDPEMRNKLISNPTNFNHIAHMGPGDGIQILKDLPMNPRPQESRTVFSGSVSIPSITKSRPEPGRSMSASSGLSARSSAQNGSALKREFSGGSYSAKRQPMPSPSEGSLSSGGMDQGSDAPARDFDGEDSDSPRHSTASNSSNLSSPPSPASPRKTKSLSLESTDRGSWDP
Eukaryotic translation initiation factor 2-alpha kinase 1, sequence (Q9BQI3 whole entry): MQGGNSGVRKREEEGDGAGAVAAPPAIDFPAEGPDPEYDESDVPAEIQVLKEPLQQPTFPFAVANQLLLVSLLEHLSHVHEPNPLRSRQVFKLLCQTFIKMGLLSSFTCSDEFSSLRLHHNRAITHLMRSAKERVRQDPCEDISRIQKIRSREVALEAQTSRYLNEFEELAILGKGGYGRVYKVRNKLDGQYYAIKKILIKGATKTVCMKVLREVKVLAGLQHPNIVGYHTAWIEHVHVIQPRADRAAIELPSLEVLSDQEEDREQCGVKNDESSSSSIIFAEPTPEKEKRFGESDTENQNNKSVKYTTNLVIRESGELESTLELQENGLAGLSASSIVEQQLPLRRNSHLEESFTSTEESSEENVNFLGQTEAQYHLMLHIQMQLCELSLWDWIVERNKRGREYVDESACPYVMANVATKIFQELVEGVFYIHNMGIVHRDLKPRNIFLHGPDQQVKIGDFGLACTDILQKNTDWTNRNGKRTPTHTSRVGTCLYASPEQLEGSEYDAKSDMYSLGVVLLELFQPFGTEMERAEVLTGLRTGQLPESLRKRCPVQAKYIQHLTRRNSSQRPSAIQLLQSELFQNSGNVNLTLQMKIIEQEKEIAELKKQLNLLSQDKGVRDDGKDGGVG
Ribosomal protein S6 kinase alpha-3, sequence (P51812 whole entry): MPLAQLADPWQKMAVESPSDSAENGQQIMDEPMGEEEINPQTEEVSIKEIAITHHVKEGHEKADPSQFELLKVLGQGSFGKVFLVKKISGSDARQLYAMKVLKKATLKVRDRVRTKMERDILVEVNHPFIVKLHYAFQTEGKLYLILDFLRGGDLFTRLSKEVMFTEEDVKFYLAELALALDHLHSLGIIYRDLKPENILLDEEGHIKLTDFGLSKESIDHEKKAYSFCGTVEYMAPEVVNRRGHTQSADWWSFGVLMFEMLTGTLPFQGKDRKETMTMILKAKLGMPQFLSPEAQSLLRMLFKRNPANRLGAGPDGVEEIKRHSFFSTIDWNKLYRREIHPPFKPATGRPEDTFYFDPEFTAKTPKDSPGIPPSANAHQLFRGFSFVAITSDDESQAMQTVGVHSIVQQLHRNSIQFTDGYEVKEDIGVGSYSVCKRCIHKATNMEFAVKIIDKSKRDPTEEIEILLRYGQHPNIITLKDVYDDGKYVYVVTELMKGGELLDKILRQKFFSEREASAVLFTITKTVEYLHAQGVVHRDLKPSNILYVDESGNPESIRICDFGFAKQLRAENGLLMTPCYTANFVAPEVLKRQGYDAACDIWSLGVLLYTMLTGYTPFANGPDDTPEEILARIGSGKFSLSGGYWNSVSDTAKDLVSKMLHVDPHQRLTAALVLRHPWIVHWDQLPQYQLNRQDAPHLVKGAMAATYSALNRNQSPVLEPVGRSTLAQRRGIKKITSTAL
Tyrosine-protein kinase HCK, sequence (P08631 whole entry): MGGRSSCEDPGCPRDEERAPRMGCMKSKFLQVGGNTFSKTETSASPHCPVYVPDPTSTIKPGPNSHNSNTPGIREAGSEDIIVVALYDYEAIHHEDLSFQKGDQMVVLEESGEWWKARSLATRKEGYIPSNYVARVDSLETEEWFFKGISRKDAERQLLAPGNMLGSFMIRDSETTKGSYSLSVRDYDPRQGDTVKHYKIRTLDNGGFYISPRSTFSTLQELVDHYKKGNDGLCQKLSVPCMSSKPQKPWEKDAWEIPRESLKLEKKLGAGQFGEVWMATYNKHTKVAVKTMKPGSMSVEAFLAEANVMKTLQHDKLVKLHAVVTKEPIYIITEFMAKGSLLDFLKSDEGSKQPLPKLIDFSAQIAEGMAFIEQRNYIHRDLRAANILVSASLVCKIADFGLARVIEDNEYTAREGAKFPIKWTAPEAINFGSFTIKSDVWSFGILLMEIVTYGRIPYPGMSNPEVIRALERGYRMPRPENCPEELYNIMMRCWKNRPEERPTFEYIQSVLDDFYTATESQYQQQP
Activin receptor type-2B, sequence (Q13705 whole entry): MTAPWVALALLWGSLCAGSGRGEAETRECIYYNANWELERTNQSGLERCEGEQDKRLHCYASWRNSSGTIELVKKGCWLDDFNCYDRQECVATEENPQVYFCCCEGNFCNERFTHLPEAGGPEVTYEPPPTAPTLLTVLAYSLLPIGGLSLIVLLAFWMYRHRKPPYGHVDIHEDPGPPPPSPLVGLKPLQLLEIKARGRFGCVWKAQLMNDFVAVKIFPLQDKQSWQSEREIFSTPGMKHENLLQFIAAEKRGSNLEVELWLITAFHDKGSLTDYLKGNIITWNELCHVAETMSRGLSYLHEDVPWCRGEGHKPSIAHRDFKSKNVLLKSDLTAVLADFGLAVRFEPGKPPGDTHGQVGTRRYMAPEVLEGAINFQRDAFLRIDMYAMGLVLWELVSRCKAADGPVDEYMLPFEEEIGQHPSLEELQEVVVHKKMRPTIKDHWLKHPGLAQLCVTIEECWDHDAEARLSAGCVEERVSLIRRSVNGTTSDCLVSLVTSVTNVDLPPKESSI
NADH dehydrogenase [ubiquinone] 1 alpha subcomplex subunit 13, sequence (Q9P0J0 whole entry, one chain of several): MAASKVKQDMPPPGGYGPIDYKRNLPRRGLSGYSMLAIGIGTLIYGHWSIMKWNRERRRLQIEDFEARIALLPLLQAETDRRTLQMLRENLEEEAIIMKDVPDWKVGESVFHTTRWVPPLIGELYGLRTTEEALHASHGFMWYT

Structure (SMILES) | Kd [1] | Kd [2] | Kd [3] | Kd (Ephrin type-B receptor 3) | Kd [4] | Kd [5] | Kd [6] | Kd [7] | Kd (Activin receptor type-2B) | Kd [8]
Cc1ccc(NC(=O)c2ccc(CN3CC[C@H](N(C)C)C3)c(C(F)(F)F)c2)cc1Nc1nccc(-c2cncnc2)n1 [BAFETINIB] | > 30 µM (inactive) | > 30 µM (inactive) | > 30 µM (inactive) | 4.55 µM (active) | > 30 µM (inactive) | > 30 µM (inactive) | > 30 µM (inactive) | > 30 µM (inactive) | > 30 µM (inactive) | > 30 µM (inactive)
Cn1cc(-c2ccc(F)c(C(F)(F)F)c2)nc1C1CCN(c2ncnc3[nH]ncc23)CC1 [LY-2584702] | > 30 µM (inactive) | > 30 µM (inactive) | > 30 µM (inactive) | > 30 µM (inactive) | > 30 µM (inactive) | > 30 µM (inactive) | > 30 µM (inactive) | > 30 µM (inactive) | > 30 µM (inactive) | > 30 µM (inactive)
O=C1NC(=O)/C(=C/c2ccc3nccc(-c4ccncc4)c3c2)S1 [GSK-1059615] | > 30 µM (inactive) | > 30 µM (inactive) | > 30 µM (inactive) | > 30 µM (inactive) | > 30 µM (inactive) | > 30 µM (inactive) | > 30 µM (inactive) | > 30 µM (inactive) | > 30 µM (inactive) | > 30 µM (inactive)
CCS(=O)(=O)N1CC(CC#N)(n2cc(-c3ncnc4[nH]ccc34)cn2)C1 [BARICITINIB] | > 30 µM (inactive) | 0.335 µM (active) | > 30 µM (inactive) | > 30 µM (inactive) | > 30 µM (inactive) | > 30 µM (inactive) | > 30 µM (inactive) | > 30 µM (inactive) | > 30 µM (inactive) | > 30 µM (inactive)
COc1cc(CCc2cc(NC(=O)c3ccc(N4C[C@@H](C)N[C@@H](C)C4)cc3)n[nH]2)cc(OC)c1 [AZD-4547] | > 30 µM (inactive) | 0.17 µM (active) | > 30 µM (inactive) | > 30 µM (inactive) | > 30 µM (inactive) | > 30 µM (inactive) | > 30 µM (inactive) | > 30 µM (inactive) | > 30 µM (inactive) | > 30 µM (inactive)
COc1cc(OC)c(/C=C/S(=O)(=O)Cc2ccc(OC)c(NCC(=O)O)c2)c(OC)c1 [RIGOSERTIB] | > 30 µM (inactive) | > 30 µM (inactive) | > 30 µM (inactive) | > 30 µM (inactive) | > 30 µM (inactive) | > 30 µM (inactive) | > 30 µM (inactive) | > 30 µM (inactive) | > 30 µM (inactive) | > 30 µM (inactive)
Cc1c(F)cc(C(=O)NC2CC2)cc1-c1ccc(C(=O)NCC(C)(C)C)cn1 [LOSMAPIMOD] | > 30 µM (inactive) | > 30 µM (inactive) | > 30 µM (inactive) | > 30 µM (inactive) | > 30 µM (inactive) | > 30 µM (inactive) | > 30 µM (inactive) | > 30 µM (inactive) | > 30 µM (inactive) | > 30 µM (inactive)
Cc1cc([C@@H](C)Nc2ccccc2C(=O)O)c2nc(N3CCOCC3)cc(=O)n2c1 [AZD-6482] | > 30 µM (inactive) | > 30 µM (inactive) | > 30 µM (inactive) | > 30 µM (inactive) | > 30 µM (inactive) | > 30 µM (inactive) | > 30 µM (inactive) | > 30 µM (inactive) | > 30 µM (inactive) | > 30 µM (inactive)
COCCNCc1ccc(-c2cc3nccc(Oc4ccc(NC(=S)NC(=O)Cc5ccc(F)cc5)cc4F)c3s2)nc1 [GLESATINIB] | > 30 µM (inactive) | > 30 µM (inactive) | > 30 µM (inactive) | > 30 µM (inactive) | > 30 µM (inactive) | > 30 µM (inactive) | > 30 µM (inactive) | 0.283 µM (active) | > 30 µM (inactive) | > 30 µM (inactive)

Second part, led by results:

Kd [1] | Kd [2] | Kd [3] | Kd (Ephrin type-B receptor 3) | Kd [4] | Kd [5] | Kd [6] | Kd [7] | Kd (Activin receptor type-2B) | Structure (SMILES) | Kd [8]
> 30 µM (inactive) | > 30 µM (inactive) | > 30 µM (inactive) | 5.43 µM (active) | > 30 µM (inactive) | > 30 µM (inactive) | > 30 µM (inactive) | > 30 µM (inactive) | > 30 µM (inactive) | COc1cc2nccc(Oc3ccc(NC(=O)Nc4cc(C)on4)c(Cl)c3)c2cc1OC [TIVOZANIB] | > 30 µM (inactive)
> 30 µM (inactive) | > 30 µM (inactive) | > 30 µM (inactive) | > 30 µM (inactive) | > 30 µM (inactive) | > 30 µM (inactive) | > 30 µM (inactive) | > 30 µM (inactive) | > 30 µM (inactive) | O=C(Nc1ccc(-c2ccnc(Nc3ccc(N4CCOCC4)cc3)n2)cc1)C1CCCN1 (stereo not given) [XL-019] | 2.19 µM (active)
> 30 µM (inactive) | > 30 µM (inactive) | > 30 µM (inactive) | > 30 µM (inactive) | > 30 µM (inactive) | > 30 µM (inactive) | > 30 µM (inactive) | > 30 µM (inactive) | > 30 µM (inactive) | CC[C@@H]1C(=O)N(C)c2cnc(Nc3ccc(C(=O)N[C@H]4CC[C@H](N5CCN(CC6CC6)CC5)CC4)cc3OC)nc2N1C(C)C [VOLASERTIB] | > 30 µM (inactive)
> 30 µM (inactive) | > 30 µM (inactive) | > 30 µM (inactive) | > 30 µM (inactive) | > 30 µM (inactive) | > 30 µM (inactive) | > 30 µM (inactive) | > 30 µM (inactive) | > 30 µM (inactive) | CCn1c(=O)c(-c2cc[nH]n2)cc2c(C)nc(N)nc21 [VOXTALISIB] | > 30 µM (inactive)
